Counter-ions that a name gives are not always drawn.
Legend:
[1] = tested on: vesicular stomatitis virus [VSV], New Jersey strain; assay type: cell-based; details: without interferon; Maden-Darby bovine kidney cells
human beta interferon = assay type: cell-based
spermidine synthase = biological target: T1, spermidine synthase (Homo sapiens, UniProt P19623); assay: Spermidine synthase inhibiting activity; assay type: biochemical; details: pH 8.2, 37°, 10 min, 20 μM decarboxylated S-adenosyl-L-methionine
T1 sequence (P19623 1-302): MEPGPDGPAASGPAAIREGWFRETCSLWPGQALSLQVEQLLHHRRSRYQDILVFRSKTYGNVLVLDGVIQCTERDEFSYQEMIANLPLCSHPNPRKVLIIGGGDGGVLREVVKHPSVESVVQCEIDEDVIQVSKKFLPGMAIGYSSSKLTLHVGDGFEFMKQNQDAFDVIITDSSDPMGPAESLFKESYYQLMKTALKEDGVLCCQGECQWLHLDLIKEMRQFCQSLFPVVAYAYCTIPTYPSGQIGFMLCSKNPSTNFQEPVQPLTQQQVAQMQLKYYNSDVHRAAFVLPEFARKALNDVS
Procedure: Reactions were initiated by the addition of enzyme and incubated for 10 minues at 37° . The reactions were stopped by the additions of 5 μL of 100 mM spermidine and 5 μL of a slurry of 160 mg/mL of Darco G60 in water. The mixtures were centrifuged at 10,000×g for 2 minutes and a 40 μL aliquot of the supernate counted. Blank reactions were run using zero incubation time, or omitting enzyme or putrescine.
This assay made use of the adsorption of unreacted substrate, decarboxylated S-adenosyl-L-methionine, on charcoal while leaving the product polyamine in solution.

human gamma interferon = assay type: cell-based
[2] = tested on: human alpha [leucocyte] interferon; details: mdbk cells
B16 melanoma cells = details: DFMO in combination with interferon; cited from earlier work

NCCCCCC(CCN)SCCOCn1cnc2c(N)ncnc21 (stereo not shown) [Example 1, 9-[2-oxa-5-thia-6-(2-aminoethyl)-11-aminoundecyl]-6-aminopurine]
antiviral activity of compound by itself against VSV [1]: no antiviral activity
potentiation of human beta interferon (human beta interferon): 16 ×
IC50 (spermidine synthase): ~100 µM
potentiation of human gamma interferon (human gamma interferon): 4 ×
potentiation of human alpha [leucocyte] interferon [2]: 2 ×
potentiation of human alpha interferon [2]: 8 ×

NCCCCCC(CCN)SC[C@@H]1C[C@H](n2cnc3c(N)ncnc32)[C@@H](O)[C@H]1O (relative stereo) [Example 3, 1,t-(9-adenyl)-2,c-3,c-dihydroxy-4,t-[2-thia-3-(2-aminoethyl)-8-aminooctyl]cyclopentane hydrochloride]
antiviral activity of compound by itself against VSV [1]: no antiviral activity
IC50 (spermidine synthase): 2 µM
potentiation of human alpha interferon [2]: 2 ×

NCCC[C@](N)(C(=O)O)C(F)F [DFMO, α-difluoromethyl ornithine]
suppression of tumor growth of B16 melanoma cells (B16 melanoma cells): total or near total suppression

— US4803272A (priority 1987, dated 1989)
